Results on five substances are retold here after patent publication US20110143948A1, “MOLECULAR SIGNATURES AND BIOMARKERS ASSOCIATED WITH MELANOMA AND METHODS OF USE THEREOF” (priority 2008, published 2011).

This data set relates to ncRNAs (SEQ ID NO 28-89). Briefly: ncRNA arrays of melanocytes, keratinocytes, normal skin, melanoma cell lines and patient samples. Conditions: for ncRNA array expression, patient 2: melanoma patient 2 sample compared to normal skin; for ncRNA array expression, patient 3: melanoma patient 3 sample compared to normal skin; for ncRNA array expression, patient 4: melanoma patient 4 sample compared to normal skin; for ncRNA array expression, patient 5: melanoma patient 5 sample compared to normal skin; for ncRNA array expression, patient 6: melanoma patient 6 sample compared to normal skin; for ncRNA array expression, patient 7: melanoma patient 7 sample compared to normal skin; for ncRNA array expression, patient 8: melanoma patient 8 sample compared to normal skin; for ncRNA array expression, patient 9: melanoma patient 9 sample compared to normal skin; for ncRNA array expression, patient 10: melanoma patient 10 sample compared to normal skin; for ncRNA array expression, patient 19: melanoma patient 19 sample compared to normal skin; for ncRNA array expression, patient 20: melanoma patient 20 sample compared to normal skin; for ncRNA array expression, patient 21: melanoma patient 21 sample compared to normal skin; for ncRNA array expression, patient 22: melanoma patient 22 sample compared to normal skin; for ncRNA array expression, patient 23: melanoma patient 23 sample compared to normal skin; for ncRNA array expression, patient 24: melanoma patient 24 sample compared to normal skin; for ncRNA array expression, patient 25: melanoma patient 25 sample compared to normal skin; for ncRNA array expression, patient 26: melanoma patient 26 sample compared to normal skin; for ncRNA array expression, patient 27: melanoma patient 27 sample compared to normal skin; for ncRNA array expression, patient 28: melanoma patient 28 sample compared to normal skin; for ncRNA array expression, patient 29: melanoma patient 29 sample compared to normal skin; for ncRNA array expression, patient 30: melanoma patient 30 sample compared to normal skin. More on the design: species or system human. In short, it runs like this:
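Differential ncRNA expression was defined against melanocytes or normal skin after subtracting keratinocyte-specific signals, with confirmation by qRT-PCR and Northern blot. Samples were melanoma cell lines, patient tumours, melanocytes, keratinocytes and normal skin, hybridised to a >10,000-probe (>200 nt) ncRNA array that also carries RefSeq mRNA probes.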

On to “SEQ ID NO 78 (ATGGAAAGGCCAGGGGAGGGTGGAGCTCAGGAGTGGAAGCACAGGGACTAAGGCCTGAGC; listed as DNA, chemistry not given here; listed as Homo sapiens)”, for which the “ncRNA array expression, patient 2” value was −3.7; the “ncRNA array expression, patient 3” value is given as −3.634; the “ncRNA array expression, patient 4” value is listed as −3.593; the “ncRNA array expression, patient 5” value is −3.41. In addition, the “ncRNA array expression, patient 6” value is listed as −1.8308; the “ncRNA array expression, patient 7” value was −3.861; the “ncRNA array expression, patient 8” value is given as −3.607; the “ncRNA array expression, patient 9” value is given as −3.9856. Besides, the “ncRNA array expression, patient 10” value is on record as −3.496; the “ncRNA array expression, patient 19” value is recorded as −2.807; the “ncRNA array expression, patient 20” value is −3.82; the “ncRNA array expression, patient 21” value was −3.781. Further, the “ncRNA array expression, patient 22” value is listed as −1.089; the “ncRNA array expression, patient 23” value is on record as −1.0414; the “ncRNA array expression, patient 24” value is −3.419; the “ncRNA array expression, patient 25” value is recorded as −3.518. In addition, the “ncRNA array expression, patient 26” value was −3.351; the “ncRNA array expression, patient 27” value is on record as −3.653; the “ncRNA array expression, patient 28” value was −3.215; the “ncRNA array expression, patient 29” value is given as −3.656. The “ncRNA array expression, patient 30” value worked out at 1.597.

On to “SEQ ID NO 79 (GTGTGTACTGATGTCAAAGACCAAATGGATGCCCCTGTGGCCAACAGTACCTTGTTAAAC; listed as DNA, chemistry not given here; listed as Homo sapiens)”, for which the “ncRNA array expression, patient 2” value is 0.5938; the “ncRNA array expression, patient 3” value came to 1.324; the “ncRNA array expression, patient 4” value is on record as 1.428; the “ncRNA array expression, patient 5” value is recorded as 1.43. The “ncRNA array expression, patient 6” value stood at 1.201; the “ncRNA array expression, patient 7” value was 1.729; the “ncRNA array expression, patient 8” value is recorded as 1.728; the “ncRNA array expression, patient 9” value is 1.129. Also, the “ncRNA array expression, patient 10” value came out at 0.1808; the “ncRNA array expression, patient 19” value was determined as 1.52; the “ncRNA array expression, patient 20” value was 1.494; the “ncRNA array expression, patient 21” value came to 1.271. Further, the “ncRNA array expression, patient 22” value came out at 1.165; the “ncRNA array expression, patient 23” value is 1.445; the “ncRNA array expression, patient 24” value came out at 2.943; the “ncRNA array expression, patient 25” value was found to be 1.206. Moreover, the “ncRNA array expression, patient 26” value is 0.7039; the “ncRNA array expression, patient 27” value was found to be 0.9237; the “ncRNA array expression, patient 28” value turned out to be 0.5852; the “ncRNA array expression, patient 29” value is 0.6174. The “ncRNA array expression, patient 30” value turned out to be 0.5148.

Consider “SEQ ID NO 80 (CACACAGCCCAGTCTGCCTGTGATGGTAATATAAATCAAACCAGGGACCCAAGAGCCCAG; listed as DNA, chemistry not given here; listed as Homo sapiens)”, for which the “ncRNA array expression, patient 2” value is −1.594; the “ncRNA array expression, patient 3” value is given as −1.487; the “ncRNA array expression, patient 4” value is on record as −1.4489; the “ncRNA array expression, patient 5” value is reported as −1.208. The “ncRNA array expression, patient 6” value is −0.982; the “ncRNA array expression, patient 7” value is given as −1.213; the “ncRNA array expression, patient 8” value is listed as −1.338; the “ncRNA array expression, patient 9” value was −1.383. Moreover, the “ncRNA array expression, patient 10” value is on record as −1.815; the “ncRNA array expression, patient 19” value is listed as −1.234; the “ncRNA array expression, patient 20” value is reported as −2.056; the “ncRNA array expression, patient 21” value was −1.5287. The “ncRNA array expression, patient 22” value is listed as −0.7073; the “ncRNA array expression, patient 23” value was −0.1143; the “ncRNA array expression, patient 24” value is listed as −1.175; the “ncRNA array expression, patient 25” value was −1.992. In addition, the “ncRNA array expression, patient 26” value is on record as −1.983; the “ncRNA array expression, patient 27” value is on record as −1.665; the “ncRNA array expression, patient 28” value was −1.4589; the “ncRNA array expression, patient 29” value is −1.489. Also, the “ncRNA array expression, patient 30” value came out at 0.1296.

Regarding “SEQ ID NO 81 (CTAGGGGCGGAGTTTCTCGTAAGGGGCAAGGCCAAGGCATCTTGTATTGGGGCTGACAGG; listed as DNA, chemistry not given here; listed as Homo sapiens)”, the “ncRNA array expression, patient 2” value was −2.704; the “ncRNA array expression, patient 3” value is on record as −2.664; the “ncRNA array expression, patient 4” value is −2.74; the “ncRNA array expression, patient 5” value is recorded as −2.515. Also, the “ncRNA array expression, patient 6” value was −1.776; the “ncRNA array expression, patient 7” value is −2.533; the “ncRNA array expression, patient 8” value is −2.25; the “ncRNA array expression, patient 9” value is −2.579. The “ncRNA array expression, patient 10” value is on record as −3.027; the “ncRNA array expression, patient 19” value was −2.079; the “ncRNA array expression, patient 20” value was −2.527; the “ncRNA array expression, patient 21” value was −2.568. Moreover, the “ncRNA array expression, patient 22” value is given as −1.3874; the “ncRNA array expression, patient 23” value is −1.288; the “ncRNA array expression, patient 24” value was −2.451; the “ncRNA array expression, patient 25” value is reported as −2.889. The “ncRNA array expression, patient 26” value is −3.081; the “ncRNA array expression, patient 27” value was −2.77; the “ncRNA array expression, patient 28” value is listed as −2.666; the “ncRNA array expression, patient 29” value is on record as −2.727. Besides, the “ncRNA array expression, patient 30” value is recorded as 2.229.

For the substance “SEQ ID NO 82 (GAAGTCAGAAACTAAAGTTCCCTTCTAAGACAAAATCCTGCTTTGGAGAAAAAAAAAAAT; listed as DNA, chemistry not given here; listed as Homo sapiens)”, the “ncRNA array expression, patient 2” value is on record as −3.153; the “ncRNA array expression, patient 3” value is given as −2.943; the “ncRNA array expression, patient 4” value is recorded as −3.11; the “ncRNA array expression, patient 5” value is listed as −2.733. Also, the “ncRNA array expression, patient 6” value is on record as −1.179; the “ncRNA array expression, patient 7” value is listed as −3.133; the “ncRNA array expression, patient 8” value is recorded as −2.955; the “ncRNA array expression, patient 9” value was −3.056. Besides, the “ncRNA array expression, patient 10” value is reported as −3.4499; the “ncRNA array expression, patient 19” value is listed as −3.347; the “ncRNA array expression, patient 20” value is recorded as −3.111; the “ncRNA array expression, patient 21” value was −3.1409. Also, the “ncRNA array expression, patient 22” value is recorded as −2.791; the “ncRNA array expression, patient 23” value is on record as −3.009; the “ncRNA array expression, patient 24” value is recorded as −3.02; the “ncRNA array expression, patient 25” value is −3.428. Further, the “ncRNA array expression, patient 26” value is −3.448; the “ncRNA array expression, patient 27” value is reported as −3.18; the “ncRNA array expression, patient 28” value was −3.348; the “ncRNA array expression, patient 29” value is reported as −3.301. Also, the “ncRNA array expression, patient 30” value is listed as −2.485.
